Results: ChEMBL document CHEMBL5154923 (J Med Chem, 2022)
pEC50, pIC50, pKd: −log10 of the molar value. Values belong to the compound of their own block, whether it stands above or below them. Active and inactive are the calls of the source. No cut-off for these calls is given here.

Tests used:
[1] = Binding affinity to wild type full length human CK2alpha2 (1 to 350 residues) expressed in mammalian expression system assessed as change in melting temperature by SYPRO orange dye based DSF assay
[2] = molecular target: T1, Serine/threonine-protein kinase 17A (Homo sapiens, UniProt Q9UEE5); experiment: Inhibition of human N-terminal His-tagged/ TEV cleavage fused DRAK1 (39 to 369 residues) transfected in HEK293T cells using NanoBRET NanoGlo as substrate incubated for 2 hrs by NanoBRET assay; assay type: cell-based
T1 sequence (Q9UEE5 whole entry): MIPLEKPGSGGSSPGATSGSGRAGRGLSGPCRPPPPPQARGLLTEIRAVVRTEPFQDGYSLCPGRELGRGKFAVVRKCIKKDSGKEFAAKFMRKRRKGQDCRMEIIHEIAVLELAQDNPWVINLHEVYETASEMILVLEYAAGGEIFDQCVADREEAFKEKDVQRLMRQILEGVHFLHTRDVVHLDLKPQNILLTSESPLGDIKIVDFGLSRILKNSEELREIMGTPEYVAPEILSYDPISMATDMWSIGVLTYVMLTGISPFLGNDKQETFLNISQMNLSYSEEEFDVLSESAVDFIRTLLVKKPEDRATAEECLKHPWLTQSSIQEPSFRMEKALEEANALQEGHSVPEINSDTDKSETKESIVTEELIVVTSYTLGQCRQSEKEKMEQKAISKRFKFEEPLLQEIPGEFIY

[3] = molecular target: T2, Casein kinase II subunit alpha (Homo sapiens, UniProt P68400); experiment: Binding affinity to wild type full length human CK2alpha1 (1 to 391 residues) expressed in mammalian expression system assessed as change in melting temperature at 10 uM by SYPRO orange dye based DSF assay
Target sequence in this assay (P68400 whole entry, looked up, the tested form may be a part): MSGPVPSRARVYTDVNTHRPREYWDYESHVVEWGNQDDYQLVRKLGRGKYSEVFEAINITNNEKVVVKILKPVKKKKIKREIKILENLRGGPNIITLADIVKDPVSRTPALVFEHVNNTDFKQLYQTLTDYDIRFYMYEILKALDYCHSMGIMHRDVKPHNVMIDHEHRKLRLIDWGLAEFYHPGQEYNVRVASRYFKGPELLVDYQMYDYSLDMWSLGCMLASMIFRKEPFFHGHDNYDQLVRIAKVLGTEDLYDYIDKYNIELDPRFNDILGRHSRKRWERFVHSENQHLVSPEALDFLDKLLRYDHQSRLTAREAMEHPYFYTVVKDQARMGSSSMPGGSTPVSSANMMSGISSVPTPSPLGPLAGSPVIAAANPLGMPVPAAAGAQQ

[4] = molecular target: T3, Serine/threonine-protein kinase 17A (Homo sapiens) (UniProt Q9UEE5); experiment: Binding affinity to human N-terminal His-tagged/ TEV cleavage fused DRAK1 (39 to 369 residues) expressed in Escherichia coli assessed as change in melting temperature at 10 uM by SYPRO orange dye based DSF assay
T3 sequence (whole entry): T1 sequence (Q9UEE5 whole entry)

HEK-293T [5] = experiment: Cytotoxicity against human HEK293T cells at 1 uM incubated for 36 hrs; assay type: toxicity, cell-based
[6] = Cytotoxicity against human MRC9 cells at 1 uM incubated for 36 hrs; assay type: toxicity, cell-based; conditions: mrc9, 36 h
LN-229 = experiment: Antiproliferative activity against human LN-229 cells assessed as reduction in cell viability after 1 to 7 days by resazurin dye based fluorimetric analysis; assay type: functional
[7] = molecular target: T2, Casein kinase II subunit alpha; experiment: Inhibition of human CK2alpha1 using RRRDDDSDDD peptide as substrate in presence of [gamma-33P]ATP by radiometric based scintillation proximity assay
Target sequence in this assay (P68400 whole entry, the tested form may be a part): as the sequence (P68400 whole entry, looked up, the tested form may be a part) above

[8] = molecular target: T3, Serine/threonine-protein kinase 17A (Homo sapiens); experiment: Inhibition of human N-terminal His-tagged/ TEV cleavage fused DRAK1 (39 to 369 residues) expressed in Escherichia coli assessed as change in entropy by isothermal titration calorimetry
[9] = Induction of morphological changes in human MRC9 cells assessed as microtubule damage at 1 to 10 uM incubated for 18 hrs by confocal fluorescence microscopic analysis; assay type: toxicity, cell-based; conditions: mrc9, 18 h, dose 1-10 µM
HEK-293T [10] = experiment: Induction of morphological changes in human HEK293T cells assessed as mitochondrial damage at 1 to 10 uM incubated for 18 hrs by confocal fluorescence microscopic analysis; assay type: toxicity, cell-based; conditions: dose 1-10 µM
D-247MG = experiment: Antiproliferative activity against human D-247MG cells assessed as reduction in cell viability after 1 to 7 days by resazurin dye based fluorimetric analysis; assay type: functional
[11] = molecular target: T1, Serine/threonine-protein kinase 17A; experiment: Inhibition of human N-terminal His-tagged/ TEV cleavage fused DRAK1 (39 to 369 residues) expressed in Escherichia coli using KKLNRTLSFAEPG peptide as substrate in presence of [gamma-33P]ATP by radiometric based scintillation proximity assay
[12] = molecular target: T2, Casein kinase II subunit alpha; experiment: Inhibition of CK2alpha1(unknown origin) transfected in HEK293T cells using NanoBRET NanoGlo as substrate incubated for 2 hrs by NanoBRET assay; assay type: cell-based
Target sequence in this assay (P68400 whole entry, the tested form may be a part): as the sequence (P68400 whole entry, looked up, the tested form may be a part) above

HEK-293T [13] = experiment: Cytotoxicity against human HEK293T cells at 1 uM incubated for 18 hrs; assay type: toxicity, cell-based
T98G [14] = experiment: Antiproliferative activity against human T98G cells assessed as reduction in cell viability measured after 1 to 7 days by resazurin dye based fluorimetric analysis; assay type: functional
[15] = molecular target: T4, BMP-2-inducible protein kinase (Homo sapiens, UniProt Q9NSY1); experiment: Inhibition of BIKE (unknown origin) transfected in HEK293T cells using NanoBRET NanoGlo as substrate incubated for 2 hrs by NanoBRET assay; assay type: cell-based
Target sequence in this assay (Q9NSY1 whole entry): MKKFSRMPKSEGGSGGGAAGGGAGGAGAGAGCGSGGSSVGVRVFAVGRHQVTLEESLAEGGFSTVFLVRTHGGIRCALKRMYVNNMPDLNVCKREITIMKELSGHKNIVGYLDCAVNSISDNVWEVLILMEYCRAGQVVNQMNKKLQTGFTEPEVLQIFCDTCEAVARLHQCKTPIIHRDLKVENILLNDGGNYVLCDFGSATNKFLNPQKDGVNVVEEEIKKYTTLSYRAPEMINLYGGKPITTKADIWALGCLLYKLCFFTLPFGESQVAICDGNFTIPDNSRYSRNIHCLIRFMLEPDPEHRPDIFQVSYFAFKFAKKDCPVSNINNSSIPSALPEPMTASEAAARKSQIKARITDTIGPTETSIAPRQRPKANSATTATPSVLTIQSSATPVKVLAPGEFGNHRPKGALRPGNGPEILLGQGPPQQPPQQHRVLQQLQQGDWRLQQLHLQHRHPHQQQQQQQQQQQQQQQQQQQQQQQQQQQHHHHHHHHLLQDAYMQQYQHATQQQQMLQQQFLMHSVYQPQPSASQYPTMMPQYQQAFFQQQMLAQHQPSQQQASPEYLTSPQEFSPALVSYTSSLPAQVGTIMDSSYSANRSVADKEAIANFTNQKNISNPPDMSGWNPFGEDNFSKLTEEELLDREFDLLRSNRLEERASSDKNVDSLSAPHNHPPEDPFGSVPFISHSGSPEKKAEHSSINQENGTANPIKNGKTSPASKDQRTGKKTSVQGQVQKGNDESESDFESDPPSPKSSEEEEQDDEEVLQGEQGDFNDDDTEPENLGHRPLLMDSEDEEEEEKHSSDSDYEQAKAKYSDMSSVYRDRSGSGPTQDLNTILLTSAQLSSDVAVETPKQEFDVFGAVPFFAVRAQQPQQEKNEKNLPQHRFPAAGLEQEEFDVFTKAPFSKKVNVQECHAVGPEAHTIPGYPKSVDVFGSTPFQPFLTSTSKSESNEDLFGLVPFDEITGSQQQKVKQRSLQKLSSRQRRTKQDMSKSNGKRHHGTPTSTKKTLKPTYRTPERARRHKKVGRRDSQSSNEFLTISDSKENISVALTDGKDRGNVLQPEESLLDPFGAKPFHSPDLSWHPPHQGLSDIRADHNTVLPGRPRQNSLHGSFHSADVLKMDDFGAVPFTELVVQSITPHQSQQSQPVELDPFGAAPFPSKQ

[16] = molecular target: AP2-associated protein kinase 1 (Homo sapiens) (UniProt Q2M2I8); experiment: Binding affinity to AAK1 (unknown origin) assessed as change in melting temperature at 10 uM by SYPRO orange dye based DSF assay
Chain of AP2-associated protein kinase 1 (Homo sapiens) (Q2M2I8 whole entry, looked up): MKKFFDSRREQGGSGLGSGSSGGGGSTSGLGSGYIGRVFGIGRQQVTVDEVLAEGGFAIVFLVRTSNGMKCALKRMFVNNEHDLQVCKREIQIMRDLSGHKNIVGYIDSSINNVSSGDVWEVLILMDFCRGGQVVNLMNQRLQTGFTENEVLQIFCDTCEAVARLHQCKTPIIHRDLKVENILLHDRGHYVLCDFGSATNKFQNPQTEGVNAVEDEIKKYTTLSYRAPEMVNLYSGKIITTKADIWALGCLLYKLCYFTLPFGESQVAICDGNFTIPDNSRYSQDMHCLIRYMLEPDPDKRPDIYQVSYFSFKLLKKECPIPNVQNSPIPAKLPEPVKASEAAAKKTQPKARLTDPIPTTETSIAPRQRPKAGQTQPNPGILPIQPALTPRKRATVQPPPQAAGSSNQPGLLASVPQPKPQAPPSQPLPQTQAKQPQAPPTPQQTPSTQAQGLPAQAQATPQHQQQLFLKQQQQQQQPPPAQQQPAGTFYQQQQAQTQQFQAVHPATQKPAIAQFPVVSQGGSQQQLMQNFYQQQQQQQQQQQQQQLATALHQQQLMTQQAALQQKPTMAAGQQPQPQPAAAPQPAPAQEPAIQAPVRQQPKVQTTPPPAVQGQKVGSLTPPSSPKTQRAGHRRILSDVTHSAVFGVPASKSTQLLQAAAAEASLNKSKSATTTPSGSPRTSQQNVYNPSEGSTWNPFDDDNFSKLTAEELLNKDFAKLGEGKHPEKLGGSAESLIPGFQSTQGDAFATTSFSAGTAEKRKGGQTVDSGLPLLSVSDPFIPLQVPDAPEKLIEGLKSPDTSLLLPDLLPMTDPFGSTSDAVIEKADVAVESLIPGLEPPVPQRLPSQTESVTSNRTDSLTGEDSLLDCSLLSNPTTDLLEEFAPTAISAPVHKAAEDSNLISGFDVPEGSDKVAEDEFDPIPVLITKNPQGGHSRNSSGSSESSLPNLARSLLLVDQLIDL

[17] = molecular target: T4, BMP-2-inducible protein kinase; experiment: Binding affinity to BIKE (unknown origin) assessed as change in melting temperature at 10 uM by SYPRO orange dye based DSF assay
Target sequence in this assay (Q9NSY1 whole entry, looked up): as the sequence (Q9NSY1 whole entry) above

[18] = Cytotoxicity against human MRC9 cells assessed as increase in total apoptotic cells incubated for 36 hrs by Annexin V staining based method; assay type: toxicity, cell-based
[19] = Cytotoxicity against human MRC9 cells assessed as increase in total apoptotic cells at 10 uM incubated for 36 hrs by Annexin V staining based method; assay type: toxicity, cell-based; conditions: mrc9, 36 h
HEK-293T [20] = experiment: Cytotoxicity against human HEK293T cells assessed as increase in total apoptotic cells at 10 uM incubated for 36 hrs by Annexin V staining based method; assay type: toxicity, cell-based
HEK-293T [21] = experiment: Induction of morphological changes in human HEK293T cells assessed as microtubule damage at 1 to 10 uM incubated for 18 hrs by confocal fluorescence microscopic analysis; assay type: toxicity, cell-based; conditions: dose 1-10 µM
[22] = molecular target: T5, Cyclin-G-associated kinase (Homo sapiens, UniProt O14976); experiment: Inhibition of GAK (unknown origin) transfected in HEK293T cells using NanoBRET NanoGlo as substrate incubated for 2 hrs by NanoBRET assay; assay type: cell-based
T5 sequence (O14976 whole entry): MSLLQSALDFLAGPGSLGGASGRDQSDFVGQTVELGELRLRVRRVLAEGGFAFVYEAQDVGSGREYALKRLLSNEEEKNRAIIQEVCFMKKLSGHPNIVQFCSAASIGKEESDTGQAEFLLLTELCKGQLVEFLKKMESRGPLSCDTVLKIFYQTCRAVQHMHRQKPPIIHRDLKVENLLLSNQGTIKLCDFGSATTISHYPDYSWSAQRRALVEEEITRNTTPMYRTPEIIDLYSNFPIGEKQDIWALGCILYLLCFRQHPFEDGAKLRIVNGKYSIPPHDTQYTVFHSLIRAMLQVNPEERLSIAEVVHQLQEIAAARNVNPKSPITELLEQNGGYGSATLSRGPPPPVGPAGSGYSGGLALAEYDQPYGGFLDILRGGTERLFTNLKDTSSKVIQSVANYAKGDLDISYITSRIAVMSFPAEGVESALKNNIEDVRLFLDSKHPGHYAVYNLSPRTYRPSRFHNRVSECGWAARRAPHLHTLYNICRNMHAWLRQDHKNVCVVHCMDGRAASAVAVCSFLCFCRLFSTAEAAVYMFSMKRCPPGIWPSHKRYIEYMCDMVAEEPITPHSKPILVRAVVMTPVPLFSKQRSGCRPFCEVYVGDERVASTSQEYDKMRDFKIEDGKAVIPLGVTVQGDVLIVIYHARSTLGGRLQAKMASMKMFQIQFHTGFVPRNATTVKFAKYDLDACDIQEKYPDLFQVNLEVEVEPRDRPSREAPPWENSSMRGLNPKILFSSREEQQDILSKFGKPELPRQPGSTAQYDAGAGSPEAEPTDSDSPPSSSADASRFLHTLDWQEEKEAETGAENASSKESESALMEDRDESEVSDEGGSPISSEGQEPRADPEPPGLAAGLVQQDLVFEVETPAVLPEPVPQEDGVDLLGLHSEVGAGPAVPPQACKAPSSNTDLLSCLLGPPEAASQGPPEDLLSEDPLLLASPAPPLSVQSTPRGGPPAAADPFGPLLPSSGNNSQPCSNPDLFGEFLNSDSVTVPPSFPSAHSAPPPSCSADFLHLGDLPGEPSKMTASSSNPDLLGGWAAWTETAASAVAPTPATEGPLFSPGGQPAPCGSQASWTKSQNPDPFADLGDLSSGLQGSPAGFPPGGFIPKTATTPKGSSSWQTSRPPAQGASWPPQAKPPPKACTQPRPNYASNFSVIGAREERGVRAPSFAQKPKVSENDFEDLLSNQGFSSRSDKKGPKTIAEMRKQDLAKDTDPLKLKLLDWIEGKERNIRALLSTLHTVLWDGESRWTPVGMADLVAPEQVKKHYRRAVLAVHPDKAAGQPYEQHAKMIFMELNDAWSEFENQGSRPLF

[23] = Cytotoxicity against human HEK293T cells assessed as increase in total apoptotic cells incubated for 36 hrs by Annexin V staining based method; assay type: toxicity, cell-based, HEK-293T
[24] = molecular target: T3, Serine/threonine-protein kinase 17A (Homo sapiens); experiment: Inhibition of human N-terminal His-tagged/ TEV cleavage fused DRAK1 (39 to 369 residues) expressed in Escherichia coli assessed as gibbs free energy change by isothermal titration calorimetry
[25] = molecular target: T1, Serine/threonine-protein kinase 17A; experiment: Binding affinity to human N-terminal His-tagged/ TEV cleavage fused DRAK1 (39 to 369 residues) expressed in Escherichia coli by isothermal titration calorimetry
[26] = Inhibition of CK2alpha2 (unknown origin) transfected in HEK293T cells using NanoBRET NanoGlo as substrate incubated for 2 hrs by NanoBRET assay; assay type: cell-based; conditions: Homo sapiens, HEK-293T
[27] = Induction of morphological changes in human MRC9 cells assessed as mitochondrial damage at 1 to 10 uM incubated for 18 hrs by confocal fluorescence microscopic analysis; assay type: toxicity, cell-based; conditions: mrc9, 18 h, dose 1-10 µM
[28] = molecular target: T3, Serine/threonine-protein kinase 17A (Homo sapiens); experiment: Inhibition of human N-terminal His-tagged/ TEV cleavage fused DRAK1 (39 to 369 residues) expressed in Escherichia coli assessed as change in enthalpy by isothermal titration calorimetry
U2OS = experiment: Cytotoxicity against human U2OS cells assessed as increase in total apoptotic cells at 10 uM incubated for 36 hrs by Annexin V staining based method; assay type: functional, cell-based
HEK-293T [29] = experiment: Cytotoxicity against human HEK293T cells assessed as increase in total apoptotic cells at 10 uM incubated for 18 hrs by Annexin V staining based method; assay type: toxicity, cell-based
T98G [30] = experiment: Induction of morphological changes in human T98G cells assessed as change in cell shape at 12.5 uM incubated for 5 days by microscopy analysis; assay type: functional, cell-based; conditions: time 5.0 day
LN-18 = experiment: Antiproliferative activity against human LN-18 cells assessed as reduction in cell viability after 1 to 7 days by resazurin dye based fluorimetric analysis; assay type: functional
[31] = molecular target: T6, Serine/threonine-protein kinase 17B (Homo sapiens, UniProt O94768); experiment: Inhibition of DRAK2 (unknown origin) transfected in HEK293T cells using NanoBRET NanoGlo as substrate incubated for 2 hrs by NanoBRET assay; assay type: cell-based
T6 sequence (O94768 whole entry): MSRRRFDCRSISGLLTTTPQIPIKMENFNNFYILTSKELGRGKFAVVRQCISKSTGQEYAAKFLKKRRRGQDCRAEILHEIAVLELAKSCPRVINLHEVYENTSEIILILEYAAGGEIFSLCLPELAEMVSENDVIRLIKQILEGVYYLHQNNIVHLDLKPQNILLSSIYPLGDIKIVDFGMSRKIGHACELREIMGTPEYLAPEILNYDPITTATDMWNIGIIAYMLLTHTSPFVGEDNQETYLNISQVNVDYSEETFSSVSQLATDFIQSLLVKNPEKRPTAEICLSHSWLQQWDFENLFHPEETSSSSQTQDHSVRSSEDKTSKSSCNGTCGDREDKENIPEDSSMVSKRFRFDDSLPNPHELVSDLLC

[32] = Inhibition of human CK2alpha2 using RRRDDDSDDD peptide as substrate in presence of [gamma-33P]ATP by radiometric based scintillation proximity assay

ΔTm [1]: 0.9 °C
pIC50 [2]: < 4.35
ΔTm [3]: 0.3 °C
Structure (SMILES): CN1CCN(C(=O)c2ccc3cc2OCCOCCNc2ccn4ncc-3c4n2)CC1

ΔTm [1]: 11.3 °C
ΔTm [4]: 7.9 °C
ΔTm [3]: 10.6 °C
Structure (SMILES): O=C(O)c1ccc2cc1OCCOCCNc1ccn3ncc-2c3n1

ΔTm [1]: 2.3 °C
pIC50 [7]: 6.02
deltaS [8]: 11.1 cal/mol.K
pIC50 [11]: 7.31
pIC50 [2]: 6.74
pIC50 [12]: 4.47
pIC50 [15]: 5.10
ΔTm [16]: > 5 °C
ΔTm [17]: > 5 °C
pIC50 [22]: 4.62
ΔTm [4]: 11.3 °C
deltaG [24]: -10.6 kcal/mol
pKd [25]: 7.68
pIC50 [26]: 4.41
deltaH [28]: -7.39 kcal/mol
ΔTm [3]: 0.8 °C
pIC50 [31]: 5.08
pIC50 [32]: 6.42
Structure (SMILES): CC(C)(C)NC(=O)c1ccc2cc1OCCOCCNc1ccn3ncc-2c3n1
Activity (HEK-293T [5]): Non-Toxic
Activity [6]: Non-Toxic
pEC50 (LN-229): 5.04
Activity [9]: Non-Toxic
Activity (HEK-293T [10]): Non-Toxic
pEC50 (D-247MG): 5.56
Activity (HEK-293T [13]): Non-Toxic
pEC50 (T98G [14]): 4.98
EC50 at 36 h [18]: > 10 µM
Activity [19]: Toxic
Activity (HEK-293T [20]): Toxic
Activity (HEK-293T [21]): Non-Toxic
EC50 at 36 h [23]: > 10 µM
Activity [27]: Non-Toxic
Activity (U2OS): Active
Activity (HEK-293T [29]): Toxic
Activity (T98G [30]): Active
pEC50 (LN-18): 4.95

ΔTm [1]: 4.9 °C
pIC50 [11]: 6.81
pIC50 [2]: 6.77
ΔTm [4]: 9.3 °C
ΔTm [3]: 1.7 °C
Structure (SMILES): O=C(NCc1ccccc1)c1ccc2cc1OCCOCCNc1ccn3ncc-2c3n1
